The target in assay [1] is T1, ALR (SF-ALR) (Homo sapiens, UniProt P55789).
T1 construct: gene GFER; SF-ALR, residues 81–205
As to the kind of experiment: 1H-15N HSQC NMR titration (slow exchange). The assay is classed as binding.

In assay [2] the target is T1, ALR (SF-ALR). The assay is described as follows: 1H-15N HSQC NMR titration of […] SF-ALR (slow exchange); IC50 from Amplex Red-HRP assay with pure enzyme. The format is biochemical.

As usually defined, the IC50 is the concentration needed to halve the response being measured.

T1 sequence (P55789 81-205): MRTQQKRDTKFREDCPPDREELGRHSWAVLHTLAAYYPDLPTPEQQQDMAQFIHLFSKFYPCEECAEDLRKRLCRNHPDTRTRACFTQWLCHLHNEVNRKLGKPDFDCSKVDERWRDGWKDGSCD

As for `CN(c1ccc(C2=NN=C(NC3CC3)SC2)cc1)S(C)(=O)=O` [MB-7], on ALR (SF-ALR) [1], the “1H-15N HSQC NMR titration (slow exchange)” value is “perturbation on the HN signals in the 2D NMR spectra (ES-1, MB-5, MB-7, MB-8, and MB-13)”.
At ALR (SF-ALR) [2], `CC(=O)Nc1cccc(-c2csc(Nc3ccc(C)cn3)n2)c1` [MB-8] returned a half-maximal inhibitory concentration (IC50) of 9.02 µM.
Regarding `Nc1ccc(N2CCN(C(=O)c3ccco3)CC2)cc1` [MB-13], the IC50 against ALR (SF-ALR) [2] is 10.7 µM.

(Values after publication PMC10816046, “The Interaction and Effect of a Small MitoBlock Library as Inhibitor of ALR Protein–Protein Interaction Pathway” (International Journal of Molecular Sciences, 2024).)
